Laboratory results taken from article PMC7026418, “The kinase polypharmacology landscape of clinical PARP inhibitors” (Scientific Reports, 2020).
Read-outs that look alike come from different tables or passages of the source.

How the values were obtained:
DYRK1B = DYRK1B (Homo sapiens, UniProt Q9Y463); assay: biochemical; set-up: DiscoveRx KINOMEscan active site-directed competition binding; percent of control kinase bound to immobilised ligand; conditions: for remaining binding at 10 µM: binding competition, % of control
Procedure: (§1) The DiscoveRx KinomeScan platform (https://www.discoverx.com), utilizing an in vitro active site-directed competition binding assay, was used to quantitatively measure interactions between the four clinical PARP inhibitors and their largest available kinase panel. At the time when the assays were performed (date: 29/11/2016), 468 in vitro binding assays were available, corresponding to 392 unique human kinases (76% of the human kinome)[39] (Supplementary Table 5). To follow up the computational analysis, we performed a comprehensive in vitro kinome screen. To do this we employed the DiscoveRx (https://www.discoverx.com) KinomeScan in vitro binding technology[37],[38] that has been widely used for kinome profiling in drug discovery. At the time of conducting our screen, this kinome panel was the largest commercially available and comprised 468 in vitro binding assays corresponding to 392 unique human kinases (76% of the human kinome)[39] (Supplementary Table 5). Also included were assays comprising mutated, deleted, phosphorylated or autoinhibited forms of proteins (n = 63), secondary or pseudokinase domains (n = 8), non-human isoforms (n = 3) and CDK complexes with different cyclins (n = 2) (Supplementary Table 5). The assays were performed at a single relatively high concentration of 10 μM to identify initially both low and high potency off-targets. The results of our use of the in vitro binding assay for kinome profiling reveal marked differences between the kinase polypharmacology of PARP inhibitors. […] The binding technology used involves a competition assay, defining activity as ≥65% of the kinase being competed off an immobilised ligand at 10 μM[38].

LTK = LTK (Homo sapiens, UniProt P29376); assay: biochemical; set-up: DiscoveRx KINOMEscan active site-directed competition binding; percent of control kinase bound to immobilised ligand; conditions: for remaining binding at 10 µM: binding competition, % of control
Procedure: as §1

STK33 = STK33 (Homo sapiens, UniProt Q9BYT3); assay: biochemical; set-up: DiscoveRx KINOMEscan active site-directed competition binding; percent of control kinase bound to immobilised ligand; conditions: for remaining binding at 10 µM: binding competition, % of control
Procedure: as §1

CIT = CIT (Homo sapiens, UniProt O14578); assay: biochemical; set-up: Reaction Biology HotSpot radiometric 33P-ATP catalytic assay at Km ATP; percent inhibition versus DMSO, mean n=2; conditions: Km ATP
Excerpt: (§2) Unreacted phosphate is removed via washing the filters.

CSNK2A1 = CSNK2A1 (Homo sapiens, UniProt P68400); assay: biochemical; set-up: Reaction Biology HotSpot radiometric 33P-ATP catalytic assay at Km ATP; percent inhibition versus DMSO, mean n=2; conditions: Km ATP
Excerpt: as §2

CSNK2A2 = CSNK2A2 (Homo sapiens, UniProt P19784); assay: biochemical; set-up: Reaction Biology HotSpot radiometric 33P-ATP catalytic assay at Km ATP; percent inhibition versus DMSO, mean n=2; conditions: Km ATP
Excerpt: as §2

HASPIN = target: T1, HASPIN (Homo sapiens, UniProt Q8TF76); assay: biochemical; set-up: Reaction Biology HotSpot radiometric 33P-ATP catalytic assay at Km ATP; percent inhibition versus DMSO, mean n=2; conditions: Km ATP
T1 sequence (Q8TF76 1-798): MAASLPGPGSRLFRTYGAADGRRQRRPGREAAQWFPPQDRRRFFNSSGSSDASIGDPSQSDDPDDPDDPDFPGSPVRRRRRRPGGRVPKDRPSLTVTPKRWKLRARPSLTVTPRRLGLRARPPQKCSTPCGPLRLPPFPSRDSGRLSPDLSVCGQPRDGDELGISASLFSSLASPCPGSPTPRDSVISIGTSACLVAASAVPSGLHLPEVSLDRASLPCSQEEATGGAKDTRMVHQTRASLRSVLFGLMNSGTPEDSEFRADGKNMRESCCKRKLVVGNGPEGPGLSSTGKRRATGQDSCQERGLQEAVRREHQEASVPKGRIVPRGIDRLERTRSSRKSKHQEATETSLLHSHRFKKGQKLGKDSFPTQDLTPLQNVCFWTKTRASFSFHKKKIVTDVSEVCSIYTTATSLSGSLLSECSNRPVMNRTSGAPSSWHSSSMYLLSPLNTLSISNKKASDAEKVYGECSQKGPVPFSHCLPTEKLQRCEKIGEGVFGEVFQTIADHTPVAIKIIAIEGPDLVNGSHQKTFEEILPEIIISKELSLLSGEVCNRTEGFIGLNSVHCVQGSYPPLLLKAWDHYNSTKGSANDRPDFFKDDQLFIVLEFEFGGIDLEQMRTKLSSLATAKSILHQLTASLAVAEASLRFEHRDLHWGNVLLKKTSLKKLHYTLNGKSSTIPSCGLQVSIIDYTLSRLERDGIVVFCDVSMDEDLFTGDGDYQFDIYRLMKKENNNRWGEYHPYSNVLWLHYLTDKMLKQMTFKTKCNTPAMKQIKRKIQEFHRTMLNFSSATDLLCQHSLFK
Excerpt: as §2

HIPK2 = HIPK2 (Homo sapiens, UniProt Q9H2X6); assay: biochemical; set-up: Reaction Biology HotSpot radiometric 33P-ATP catalytic assay at Km ATP; percent inhibition versus DMSO, mean n=2; conditions: Km ATP
Excerpt: as §2

HIPK3 = HIPK3 (Homo sapiens, UniProt Q9H422); assay: biochemical; set-up: Reaction Biology HotSpot radiometric 33P-ATP catalytic assay at Km ATP; percent inhibition versus DMSO, mean n=2; conditions: Km ATP
Excerpt: as §2

MYLK4 = target: T2, MYLK4 (Homo sapiens, UniProt Q86YV6); assay: HotSpot radiometric kinase assay at […] (Km ATP), follow-up of KinomeScan binding; type: biochemical; conditions: read-out: Rucaparib
T2 sequence (Q86YV6 1-388): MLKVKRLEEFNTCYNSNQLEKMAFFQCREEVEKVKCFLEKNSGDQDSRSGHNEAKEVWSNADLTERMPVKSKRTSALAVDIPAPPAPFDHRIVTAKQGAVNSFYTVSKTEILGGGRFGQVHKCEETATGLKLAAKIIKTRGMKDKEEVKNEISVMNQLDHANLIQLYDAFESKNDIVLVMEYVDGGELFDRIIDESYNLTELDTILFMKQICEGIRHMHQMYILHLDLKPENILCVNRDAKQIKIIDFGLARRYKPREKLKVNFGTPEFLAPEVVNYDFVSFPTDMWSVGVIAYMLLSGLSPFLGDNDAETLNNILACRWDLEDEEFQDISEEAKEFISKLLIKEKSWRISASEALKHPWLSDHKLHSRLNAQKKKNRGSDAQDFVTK

FLT3(ITD) = FLT3(ITD) (Homo sapiens, UniProt P36888); assay: biochemical; set-up: DiscoveRx KINOMEscan active site-directed competition binding; percent of control kinase bound to immobilised ligand; conditions: binding competition, % of control
[1] = read-out: Talazoparib (BMN 673) / %Ctrl @ 10000nM
[2] = read-out: Olaparib / %Ctrl @ 10000nM
[3] = read-out: Niraparib (MK-4827) / %Ctrl @ 10000nM, binding competition
[4] = read-out: Rucaparib / %Ctrl @ 10000nM, binding competition

Chain of STK33 (Q9BYT3 whole entry): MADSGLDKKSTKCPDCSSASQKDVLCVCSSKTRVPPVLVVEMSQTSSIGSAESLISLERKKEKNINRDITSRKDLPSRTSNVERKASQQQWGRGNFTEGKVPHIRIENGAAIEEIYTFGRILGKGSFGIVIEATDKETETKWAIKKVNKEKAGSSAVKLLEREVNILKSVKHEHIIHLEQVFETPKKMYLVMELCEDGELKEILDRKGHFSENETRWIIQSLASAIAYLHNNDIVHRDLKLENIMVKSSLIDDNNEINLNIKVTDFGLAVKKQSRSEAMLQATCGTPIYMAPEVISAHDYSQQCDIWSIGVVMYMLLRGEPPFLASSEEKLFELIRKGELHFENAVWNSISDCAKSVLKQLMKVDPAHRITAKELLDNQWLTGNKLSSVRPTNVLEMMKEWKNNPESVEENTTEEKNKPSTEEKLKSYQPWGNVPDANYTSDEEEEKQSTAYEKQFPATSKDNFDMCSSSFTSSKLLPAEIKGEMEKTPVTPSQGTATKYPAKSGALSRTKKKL
Chain of DYRK1B (Q9Y463 whole entry): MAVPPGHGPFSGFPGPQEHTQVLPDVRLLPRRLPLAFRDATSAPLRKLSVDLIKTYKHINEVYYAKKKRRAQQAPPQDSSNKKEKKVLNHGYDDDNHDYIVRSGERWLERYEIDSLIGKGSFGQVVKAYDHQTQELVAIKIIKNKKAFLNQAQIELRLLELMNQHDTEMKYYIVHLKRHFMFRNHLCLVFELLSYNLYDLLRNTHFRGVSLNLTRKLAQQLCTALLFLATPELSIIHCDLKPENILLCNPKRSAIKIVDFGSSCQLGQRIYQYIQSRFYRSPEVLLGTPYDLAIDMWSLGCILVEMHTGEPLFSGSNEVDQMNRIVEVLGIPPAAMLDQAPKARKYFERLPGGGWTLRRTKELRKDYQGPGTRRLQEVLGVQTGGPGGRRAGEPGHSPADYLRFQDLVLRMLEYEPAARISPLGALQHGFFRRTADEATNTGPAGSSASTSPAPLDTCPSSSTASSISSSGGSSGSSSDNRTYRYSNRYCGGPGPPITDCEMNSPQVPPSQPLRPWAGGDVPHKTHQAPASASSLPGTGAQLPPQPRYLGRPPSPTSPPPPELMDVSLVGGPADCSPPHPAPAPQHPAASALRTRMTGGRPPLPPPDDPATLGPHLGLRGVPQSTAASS
Chain of LTK (P29376 whole entry): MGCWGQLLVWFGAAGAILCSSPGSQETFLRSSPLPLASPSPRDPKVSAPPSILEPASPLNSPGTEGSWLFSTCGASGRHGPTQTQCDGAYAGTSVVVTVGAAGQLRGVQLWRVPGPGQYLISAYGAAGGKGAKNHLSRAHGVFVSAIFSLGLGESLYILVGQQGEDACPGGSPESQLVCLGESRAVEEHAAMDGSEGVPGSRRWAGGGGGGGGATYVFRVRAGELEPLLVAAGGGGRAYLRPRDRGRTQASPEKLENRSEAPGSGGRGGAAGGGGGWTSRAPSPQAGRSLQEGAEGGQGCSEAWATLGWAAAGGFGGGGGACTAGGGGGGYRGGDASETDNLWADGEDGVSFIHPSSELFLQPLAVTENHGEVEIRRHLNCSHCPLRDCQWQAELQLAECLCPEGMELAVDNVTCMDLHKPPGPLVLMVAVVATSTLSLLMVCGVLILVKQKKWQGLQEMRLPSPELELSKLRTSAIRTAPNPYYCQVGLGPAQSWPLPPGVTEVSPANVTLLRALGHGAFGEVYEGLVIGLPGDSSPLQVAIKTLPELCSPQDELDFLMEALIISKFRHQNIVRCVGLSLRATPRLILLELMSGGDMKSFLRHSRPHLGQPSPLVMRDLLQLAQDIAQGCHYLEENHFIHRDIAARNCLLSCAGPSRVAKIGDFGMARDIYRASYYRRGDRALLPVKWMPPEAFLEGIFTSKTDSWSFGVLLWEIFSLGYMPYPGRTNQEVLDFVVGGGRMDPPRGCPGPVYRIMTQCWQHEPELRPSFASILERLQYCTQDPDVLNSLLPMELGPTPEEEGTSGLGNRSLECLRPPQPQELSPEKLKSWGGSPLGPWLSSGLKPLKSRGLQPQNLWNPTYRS
Chain of HIPK3 (Q9H422 whole entry): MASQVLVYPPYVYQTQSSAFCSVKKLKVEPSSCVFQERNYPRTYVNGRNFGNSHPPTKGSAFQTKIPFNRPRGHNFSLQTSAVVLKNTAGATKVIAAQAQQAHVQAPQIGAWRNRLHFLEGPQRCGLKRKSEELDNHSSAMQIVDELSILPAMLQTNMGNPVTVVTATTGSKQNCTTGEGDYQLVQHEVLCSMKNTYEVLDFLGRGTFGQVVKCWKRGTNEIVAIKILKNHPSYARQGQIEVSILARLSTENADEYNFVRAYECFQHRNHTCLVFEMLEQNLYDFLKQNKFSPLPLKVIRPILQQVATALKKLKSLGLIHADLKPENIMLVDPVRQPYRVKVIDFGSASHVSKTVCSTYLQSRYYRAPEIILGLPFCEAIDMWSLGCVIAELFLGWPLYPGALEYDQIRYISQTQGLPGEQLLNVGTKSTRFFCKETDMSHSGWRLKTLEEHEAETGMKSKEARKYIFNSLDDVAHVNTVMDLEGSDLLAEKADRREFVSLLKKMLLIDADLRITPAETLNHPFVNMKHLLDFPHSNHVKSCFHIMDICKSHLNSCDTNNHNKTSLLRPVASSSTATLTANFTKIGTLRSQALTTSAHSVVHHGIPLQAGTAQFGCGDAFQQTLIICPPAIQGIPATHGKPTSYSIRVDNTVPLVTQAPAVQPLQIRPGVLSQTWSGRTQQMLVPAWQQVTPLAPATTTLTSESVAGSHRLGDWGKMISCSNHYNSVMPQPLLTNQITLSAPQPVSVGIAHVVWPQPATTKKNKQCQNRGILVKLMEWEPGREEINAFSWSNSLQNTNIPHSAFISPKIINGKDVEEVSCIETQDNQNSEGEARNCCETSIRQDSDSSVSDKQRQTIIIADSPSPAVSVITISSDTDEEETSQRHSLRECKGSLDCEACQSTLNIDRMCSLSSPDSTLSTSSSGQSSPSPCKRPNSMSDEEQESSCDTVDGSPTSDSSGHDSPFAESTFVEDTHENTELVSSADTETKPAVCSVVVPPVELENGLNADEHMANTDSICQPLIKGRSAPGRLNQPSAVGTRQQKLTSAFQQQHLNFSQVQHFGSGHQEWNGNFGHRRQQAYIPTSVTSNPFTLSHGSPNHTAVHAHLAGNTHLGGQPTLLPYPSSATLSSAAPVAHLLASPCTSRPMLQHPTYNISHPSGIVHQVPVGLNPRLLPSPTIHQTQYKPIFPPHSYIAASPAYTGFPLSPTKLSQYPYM
Chain of HIPK2 (Q9H2X6 whole entry): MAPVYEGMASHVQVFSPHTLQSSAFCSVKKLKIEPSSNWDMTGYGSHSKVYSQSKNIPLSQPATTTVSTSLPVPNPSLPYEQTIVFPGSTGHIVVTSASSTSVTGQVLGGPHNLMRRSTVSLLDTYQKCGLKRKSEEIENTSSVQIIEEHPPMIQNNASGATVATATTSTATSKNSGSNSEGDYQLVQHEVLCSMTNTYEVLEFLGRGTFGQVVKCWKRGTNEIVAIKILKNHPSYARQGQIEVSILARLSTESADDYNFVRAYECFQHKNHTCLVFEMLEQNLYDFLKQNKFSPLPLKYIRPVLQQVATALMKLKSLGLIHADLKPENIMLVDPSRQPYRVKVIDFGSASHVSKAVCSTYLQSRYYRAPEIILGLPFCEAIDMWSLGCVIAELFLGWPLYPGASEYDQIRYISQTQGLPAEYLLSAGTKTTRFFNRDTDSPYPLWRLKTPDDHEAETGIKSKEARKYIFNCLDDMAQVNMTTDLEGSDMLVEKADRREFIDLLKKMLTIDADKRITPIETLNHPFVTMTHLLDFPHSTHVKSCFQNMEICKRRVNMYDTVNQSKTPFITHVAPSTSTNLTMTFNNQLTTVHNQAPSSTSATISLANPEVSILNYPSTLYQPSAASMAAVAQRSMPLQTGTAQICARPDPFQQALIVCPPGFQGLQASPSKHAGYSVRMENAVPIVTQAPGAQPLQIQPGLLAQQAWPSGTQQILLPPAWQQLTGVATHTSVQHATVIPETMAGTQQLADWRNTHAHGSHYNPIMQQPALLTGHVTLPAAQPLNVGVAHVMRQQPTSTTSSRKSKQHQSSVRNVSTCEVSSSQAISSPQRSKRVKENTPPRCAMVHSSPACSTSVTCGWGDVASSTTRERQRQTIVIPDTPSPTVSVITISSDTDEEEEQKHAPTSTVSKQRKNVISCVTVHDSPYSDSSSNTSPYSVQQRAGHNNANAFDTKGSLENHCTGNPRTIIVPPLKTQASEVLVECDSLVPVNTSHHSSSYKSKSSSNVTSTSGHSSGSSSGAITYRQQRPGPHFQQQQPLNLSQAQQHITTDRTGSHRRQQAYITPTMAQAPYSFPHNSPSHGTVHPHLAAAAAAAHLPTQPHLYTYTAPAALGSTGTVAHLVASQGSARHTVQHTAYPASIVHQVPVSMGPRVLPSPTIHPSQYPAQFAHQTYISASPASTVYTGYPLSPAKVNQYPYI
Chain of CSNK2A2 (P19784 whole entry): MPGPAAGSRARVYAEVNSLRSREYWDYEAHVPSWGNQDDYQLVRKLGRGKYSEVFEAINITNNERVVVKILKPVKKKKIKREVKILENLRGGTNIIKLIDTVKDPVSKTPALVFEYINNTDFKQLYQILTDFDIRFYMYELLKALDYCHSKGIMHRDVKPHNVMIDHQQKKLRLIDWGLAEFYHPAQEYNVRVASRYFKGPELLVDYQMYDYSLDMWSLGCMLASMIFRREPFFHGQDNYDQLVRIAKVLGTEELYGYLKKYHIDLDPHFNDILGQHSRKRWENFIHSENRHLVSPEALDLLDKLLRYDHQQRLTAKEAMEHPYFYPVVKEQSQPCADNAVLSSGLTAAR

**Q.** Which remaining binding at 10 µM (DYRK1B; [1]) does the source give for Cn1ncnc1[C@H]1c2n[nH]c(=O)c3cc(F)cc(c23)N[C@@H]1c1ccc(F)cc1 [Talazoparib] here?
**A.** 95%

**Q.** And the remaining binding at 10 µM (LTK; [1])?
**A.** 91%

**Q.** And the remaining binding at 10 µM (STK33; [1])?
**A.** 99%

**Q.** For O=C(c1cc(Cc2n[nH]c(=O)c3ccccc23)ccc1F)N1CCN(C(=O)C2CC2)CC1 [Olaparib], which remaining binding at 10 µM (DYRK1B; [2]) is on record?
**A.** 97%

**Q.** And the remaining binding at 10 µM (LTK; [2])?
**A.** 93%

**Q.** And the remaining binding at 10 µM (STK33; [2])?
**A.** 100%

**Q.** Which results are given for NC(=O)c1cccc2cn(-c3ccc([C@@H]4CCCNC4)cc3)nc12 [Niraparib]?
**A.** inhibition at 1 µM (CIT): 10%; inhibition at 1 µM (CSNK2A1): 12%; inhibition at 1 µM (CSNK2A2): -1%; inhibition at 1 µM (HASPIN): 10%; inhibition at 1 µM (HIPK2): 23%; inhibition at 1 µM (HIPK3): 5%; percent of control kinase binding at 10 µM (DYRK1B; [3]): 0%; percent of control kinase binding at 10 µM (LTK; [3]): 71%

**Q.** How did the inhibition at 1 µM (MYLK4) turn out when CNCc1ccc(-c2[nH]c3cc(F)cc4c3c2CCNC4=O)cc1 [Rucaparib] was run?
**A.** 36%

**Q.** And the inhibition at 1 µM (CIT)?
**A.** 15%

**Q.** And the inhibition at 1 µM (CSNK2A1)?
**A.** 21%

**Q.** And the inhibition at 1 µM (CSNK2A2)?
**A.** 17%

**Q.** What about the inhibition at 1 µM (HASPIN) of the same compound?
**A.** -6%

**Q.** What about the inhibition at 1 µM (HIPK2) of the same compound?
**A.** -6%

**Q.** What about the inhibition at 1 µM (HIPK3) of the same compound?
**A.** -12%

**Q.** And the “Rucaparib / %Ctrl @ 10000nM” value (FLT3(ITD))?
**A.** 41%

**Q.** What about the percent of control kinase binding at 10 µM (DYRK1B; [4]) of the same compound?
**A.** 5.7%

**Q.** What about the percent of control kinase binding at 10 µM (LTK; [4]) of the same compound?
**A.** 89%

**Q.** And the percent of control kinase binding at 10 µM (STK33; [4])?
**A.** 89%
